Results: patent US11160886B2, “Method for labeling of sensitive and thermosensitive targeting biomolecules with technetium based compounds” (BRACCO IMAGING SPA, priority 2016, dated 2021)

How the values were obtained:
[1] = target: avidin (Gallus gallus, UniProt P02701); assay: Avidin binding; details: 1 and 24 h at 37° C.
Method: Avidin Binding. The preliminary evaluation of the binding characteristics of the two separate isomers of complex 11 to avidin was assessed according to the previously reported methods and compared with those of the corresponding already published (Bolzati, C.; Caporale, A.; Agostini, S.; Carta, D.; Cavazza-Ceccato, M.; Refosco, F.; Tisato, F.; Schievano, E.; Bandoli, G. Avidin-biotin system: a small library of cysteine biotinylated derivatives designed for the [^99mTc(N)(PNp)]^2+ metal fragment. Nucl. Med. Biol (2006), 34, 511-522).
The percentage of radiolabeled biotin bound, evaluated after 1 and 24 h of incubation along the saturation curves, is reported in FIG. 9.

[2] = Isomeric conversion over 24 h at 37° C.; type: physicochemical
Method: Before the experiments for both complex 11 and complex 9, the two isomers were isolated by HPLC and their isomeric conversion was assessed over 24 h at 37° C.
In addition, a faster b vs a change was noticed. Therefore, for the radiolabeled peptide the mixture of the two isomeric forms in ratio 70/30 was directly utilized for receptor affinity studies.

[3] = Challenge reactions (transchelation) with excess Cys, GSH or EDTA, RCP by HPLC; type: physicochemical; details: 10 mM
Method: The transchelation studies were performed for some compounds monitoring by HPLC the radiochemical purity (RCP) of the complexes in presence of an excess of exchanging ligands over the time. The experiments were performed in triplicate.
Challenge experiments were carried out on the purified [^99mTc(N)(PNP3OH)]-labeled small size compounds (complex 1, complex 2, complex 9 and complex 10) using an excess of glutathione (GSH) or Cys. An aliquot (50 μl) of an aqueous stock solution of cysteine hydrochloride (10 mM; 1 mM) was added to a propylene test tube containing PB (250 μl, 0.2 M; pH 7.4), water (100 μl) and the selected [^99mTc(N)(PNP3OH)]-compound (100 μl). The mixture was vortexed and incubated at 37° C. for 24 h. A control reaction containing an equal volume of water, instead of cysteine hydrochloride, was studied in parallel. At 30 min, 1, 3 and 24 h, aliquots of the reaction mixture were withdrawn and analyzed by HPLC chromatography. A similar procedure was applied using GSH (50 μl, 10 mM) as challenge ligand.
For [^99mTc(N)(PNP3OH)(Cys-Gly-Lys-Gly-ApoMb)]^+ (“Cys-Gly-Lys-Gly” disclosed as SEQ ID NO: 1) additional experiments were conducted using EDTA (50 μl, 10 mM) as exchanging ligand.

Chain of avidin (P02701 25-152, species assumed): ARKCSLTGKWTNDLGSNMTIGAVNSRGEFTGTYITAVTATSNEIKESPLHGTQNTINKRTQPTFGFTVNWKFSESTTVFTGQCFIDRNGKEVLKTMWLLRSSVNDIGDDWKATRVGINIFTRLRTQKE

[^99mTc(N)(PNP3OH)(Biot-Abu-Cys)] [Complex 11]
Recognition by molecular target (avidin binding, FIG. 9) [1]: recognized by the corresponding molecular target | Isomeric conversion a vs b [2]: No variation of a vs b and vice versa

[^99mTc(N)(PNP3OH)(Cys-Gly-Lys-Gly-ApoMb)]^+
Stability in challenge with excess of Cys, GSH and EDTA [3]: do not affect the stability
